Laboratory results as given in the NIST ThermoML archive (doi:10.1021/je060271a).
Values joined by “and” are separate entries in the source; they are usually repeats but may differ in a detail not shown here. Equal entries are not always repeated. ± gives the expanded uncertainty stated by the source.

Conditions: 343.15 K, Liquid, Vibrating tube method

CCCCCCC(=O)OCC(COC(=O)CCCCCC)(COC(=O)CCCCCC)COC(=O)CCCCCC [pentaerythritol tetraheptanoate]
Conditions | mass density
28615 kPa | 960.4 ± 1.2 kg/m3
28635 kPa | 960.4 ± 1.2 kg/m3
28662 kPa | 960.4 ± 1.2 kg/m3
28700 kPa | 960.4 ± 1.2 kg/m3
28729 kPa | 960.5 ± 1.2 kg/m3
28739 kPa | 960.4 ± 1.2 kg/m3
28764 kPa | 960.6 ± 1.2 kg/m3
28779 kPa | 960.5 ± 1.2 kg/m3
28794 kPa | 960.6 ± 1.2 kg/m3
28823 kPa | 960.7 ± 1.2 kg/m3
28826 kPa | 960.6 ± 1.2 kg/m3
28858 kPa | 960.6 ± 1.2 kg/m3
28865 kPa | 960.6 ± 1.2 kg/m3
28887 kPa | 960.6 ± 1.2 kg/m3
28912 kPa | 960.6 ± 1.2 kg/m3
28918 kPa | 960.5 ± 1.2 kg/m3
28948 kPa | 960.6 ± 1.2 kg/m3
28952 kPa | 960.6 ± 1.2 kg/m3
28985 kPa | 960.7 ± 1.2 kg/m3
28992 kPa | 960.6 ± 1.2 kg/m3
29016 kPa | 960.7 ± 1.2 kg/m3
29032 kPa | 960.7 ± 1.2 kg/m3
29046 kPa | 960.8 ± 1.2 kg/m3
29076 kPa | 960.6 ± 1.2 kg/m3
29081 kPa | 960.7 ± 1.2 kg/m3
29112 kPa | 960.7 ± 1.2 kg/m3
29121 kPa | 960.5 ± 1.2 kg/m3
29142 kPa | 960.8 ± 1.2 kg/m3
29163 kPa | 960.7 ± 1.2 kg/m3
29178 kPa | 960.8 ± 1.2 kg/m3
29208 kPa | 960.9 ± 1.2 kg/m3
29212 kPa | 960.7 ± 1.2 kg/m3
29238 kPa | 960.8 ± 1.2 kg/m3
29254 kPa | 960.8 ± 1.2 kg/m3
29274 kPa | 960.9 ± 1.2 kg/m3
29305 kPa | 960.9 ± 1.2 kg/m3
29308 kPa | 960.7 ± 1.2 kg/m3
29336 kPa | 960.8 ± 1.2 kg/m3
29344 kPa | 960.9 ± 1.2 kg/m3
29372 kPa | 961 ± 1.2 kg/m3
29387 kPa | 960.8 ± 1.2 kg/m3
29434 kPa | 961 ± 1.2 kg/m3
29435 kPa | 960.9 ± 1.2 kg/m3
29461 kPa | 960.9 ± 1.2 kg/m3
29471 kPa | 961.1 ± 1.2 kg/m3
29503 kPa | 961 ± 1.2 kg/m3
29534 kPa | 961 ± 1.2 kg/m3
29540 kPa | 961 ± 1.2 kg/m3
29564 kPa | 961 ± 1.2 kg/m3
29571 kPa | 960.8 ± 1.2 kg/m3
29597 kPa | 961.1 ± 1.2 kg/m3
29602 kPa | 961.2 ± 1.2 kg/m3
29628 kPa | 960.8 ± 1.2 kg/m3
29634 kPa | 961.1 ± 1.2 kg/m3
29654 kPa | 961 ± 1.2 kg/m3
29666 kPa | 961 ± 1.2 kg/m3
29679 kPa | 961 ± 1.2 kg/m3
29704 kPa | 961.1 ± 1.2 kg/m3
29705 kPa | 961.1 ± 1.2 kg/m3
29735 kPa | 961.1 ± 1.2 kg/m3
29736 kPa | 961.1 ± 1.2 kg/m3
29764 kPa | 961.1 ± 1.2 kg/m3
29767 kPa | 961.1 ± 1.2 kg/m3
29790 kPa | 961.3 ± 1.2 kg/m3
29805 kPa | 961.3 ± 1.2 kg/m3
29816 kPa | 961.1 ± 1.2 kg/m3
29839 kPa | 961.1 ± 1.2 kg/m3
29846 kPa | 961.2 ± 1.2 kg/m3
29871 kPa | 961.3 ± 1.2 kg/m3
29873 kPa | 961.2 ± 1.2 kg/m3
29900 kPa | 961.1 ± 1.2 kg/m3
29903 kPa | 961.3 ± 1.2 kg/m3
29931 kPa | 961.1 ± 1.2 kg/m3
29935 kPa | 961.2 ± 1.2 kg/m3
29958 kPa | 961.1 ± 1.2 kg/m3
29974 kPa | 961.2 ± 1.2 kg/m3
29984 kPa | 961.3 ± 1.2 kg/m3
30006 kPa | 961.3 ± 1.2 kg/m3
30016 kPa | 961.3 ± 1.2 kg/m3
30043 kPa | 961.3 ± 1.2 kg/m3
30045 kPa | 961.4 ± 1.2 kg/m3
30070 kPa | 961.4 ± 1.2 kg/m3
30077 kPa | 961.3 ± 1.2 kg/m3
30102 kPa | 961.3 ± 1.2 kg/m3
30109 kPa | 961.4 ± 1.2 kg/m3
30129 kPa | 961.4 ± 1.2 kg/m3
30148 kPa | 961.4 ± 1.2 kg/m3
30157 kPa | 961.4 ± 1.2 kg/m3
30180 kPa | 961.4 ± 1.2 kg/m3
30184 kPa | 961.5 ± 1.2 kg/m3
30213 kPa | 961.5 ± 1.2 kg/m3
30216 kPa | 961.4 ± 1.2 kg/m3
30243 kPa | 961.5 ± 1.2 kg/m3
30247 kPa | 961.4 ± 1.2 kg/m3
30275 kPa | 961.4 ± 1.2 kg/m3
30288 kPa | 961.5 ± 1.2 kg/m3
30302 kPa | 961.4 ± 1.2 kg/m3
30321 kPa | 961.5 ± 1.2 kg/m3
30330 kPa | 961.5 ± 1.2 kg/m3
30354 kPa | 961.6 ± 1.2 kg/m3
30363 kPa | 961.5 ± 1.2 kg/m3
30388 kPa | 961.6 ± 1.2 kg/m3
30391 kPa | 961.6 ± 1.2 kg/m3
30419 kPa | 961.6 ± 1.2 kg/m3
30428 kPa | 961.5 ± 1.2 kg/m3
30446 kPa | 961.5 ± 1.2 kg/m3
30461 kPa | 961.6 ± 1.2 kg/m3
30481 kPa | 961.6 ± 1.2 kg/m3
30495 kPa | 961.6 ± 1.2 kg/m3
30510 kPa | 961.7 ± 1.2 kg/m3
30528 kPa | 961.6 ± 1.2 kg/m3
30538 kPa | 961.6 ± 1.2 kg/m3
30568 kPa | 961.6 ± 1.2 kg/m3
30571 kPa | 961.6 ± 1.2 kg/m3
30599 kPa | 961.6 ± 1.2 kg/m3
30602 kPa | 961.8 ± 1.2 kg/m3
30627 kPa | 961.7 ± 1.2 kg/m3
30642 kPa | 961.7 ± 1.2 kg/m3
30660 kPa | 961.6 ± 1.2 kg/m3
30675 kPa | 961.7 ± 1.2 kg/m3
30688 kPa | 961.8 ± 1.2 kg/m3
30710 kPa | 961.8 ± 1.2 kg/m3
30716 kPa | 961.7 ± 1.2 kg/m3
30744 kPa | 961.7 ± 1.2 kg/m3
30778 kPa | 961.7 ± 1.2 kg/m3
30785 kPa | 961.7 ± 1.2 kg/m3
30806 kPa | 961.8 ± 1.2 kg/m3
30819 kPa | 961.8 ± 1.2 kg/m3
30835 kPa | 961.8 ± 1.2 kg/m3
30860 kPa | 961.8 ± 1.2 kg/m3
30870 kPa | 961.7 ± 1.2 kg/m3
30894 kPa | 961.8 ± 1.2 kg/m3
30900 kPa | 961.7 ± 1.2 kg/m3
30928 kPa | 961.8 ± 1.2 kg/m3 and 962 ± 1.2 kg/m3
30956 kPa | 961.9 ± 1.2 kg/m3
30970 kPa | 962 ± 1.2 kg/m3
30990 kPa | 961.7 ± 1.2 kg/m3
31004 kPa | 961.9 ± 1.2 kg/m3
31019 kPa | 961.9 ± 1.2 kg/m3
31040 kPa | 962.1 ± 1.2 kg/m3
31048 kPa | 961.8 ± 1.2 kg/m3
31081 kPa | 962 ± 1.2 kg/m3
31082 kPa | 961.8 ± 1.2 kg/m3
31111 kPa | 962 ± 1.2 kg/m3
31116 kPa | 962 ± 1.2 kg/m3
31145 kPa | 962.1 ± 1.2 kg/m3
31151 kPa | 962 ± 1.2 kg/m3
31174 kPa | 962.1 ± 1.2 kg/m3
31193 kPa | 962.1 ± 1.2 kg/m3
31203 kPa | 961.9 ± 1.2 kg/m3
31229 kPa | 962.1 ± 1.2 kg/m3
31238 kPa | 962 ± 1.2 kg/m3
31264 kPa | 962.1 ± 1.2 kg/m3
31268 kPa | 962 ± 1.2 kg/m3
31298 kPa | 962.1 ± 1.2 kg/m3
31306 kPa | 962 ± 1.2 kg/m3
31327 kPa | 962 ± 1.2 kg/m3
31342 kPa | 962.2 ± 1.2 kg/m3
31362 kPa | 962.1 ± 1.2 kg/m3
31377 kPa | 962 ± 1.2 kg/m3
31392 kPa | 962.1 ± 1.2 kg/m3
31420 kPa | 962.3 ± 1.2 kg/m3
31427 kPa | 962.1 ± 1.2 kg/m3
31456 kPa | 962 ± 1.2 kg/m3
31457 kPa | 962.2 ± 1.2 kg/m3
31486 kPa | 962.2 ± 1.2 kg/m3
31492 kPa | 962.3 ± 1.2 kg/m3
31516 kPa | 962.2 ± 1.2 kg/m3
31528 kPa | 962.2 ± 1.2 kg/m3
31552 kPa | 962.2 ± 1.2 kg/m3
31571 kPa | 962.3 ± 1.2 kg/m3
31582 kPa | 962.3 ± 1.2 kg/m3
31608 kPa | 962.4 ± 1.2 kg/m3
31611 kPa | 962.3 ± 1.2 kg/m3
31644 kPa | 962.3 ± 1.2 kg/m3
31647 kPa | 962.2 ± 1.2 kg/m3
31678 kPa | 962.4 ± 1.2 kg/m3
31688 kPa | 962.3 ± 1.2 kg/m3
31715 kPa | 962.3 ± 1.2 kg/m3
31725 kPa | 962.5 ± 1.2 kg/m3
31745 kPa | 962.3 ± 1.2 kg/m3
31761 kPa | 962.4 ± 1.2 kg/m3
31775 kPa | 962.4 ± 1.2 kg/m3
31805 kPa | 962.4 ± 1.2 kg/m3
31807 kPa | 962.4 ± 1.2 kg/m3
31841 kPa | 962.4 ± 1.2 kg/m3
31844 kPa | 962.4 ± 1.2 kg/m3
31871 kPa | 962.5 ± 1.2 kg/m3
31874 kPa | 962.4 ± 1.2 kg/m3
31905 kPa | 962.5 ± 1.2 kg/m3
31914 kPa | 962.5 ± 1.2 kg/m3
31942 kPa | 962.3 ± 1.2 kg/m3
31958 kPa | 962.4 ± 1.2 kg/m3
31972 kPa | 962.6 ± 1.2 kg/m3
32003 kPa | 962.4 ± 1.2 kg/m3
32009 kPa | 962.5 ± 1.2 kg/m3
32040 kPa | 962.6 ± 1.2 kg/m3
32041 kPa | 962.6 ± 1.2 kg/m3
32071 kPa | 962.6 ± 1.2 kg/m3
32078 kPa | 962.5 ± 1.2 kg/m3
32104 kPa | 962.5 ± 1.2 kg/m3
32115 kPa | 962.6 ± 1.2 kg/m3
32136 kPa | 962.5 ± 1.2 kg/m3
32160 kPa | 962.6 ± 1.2 kg/m3
32173 kPa | 962.5 ± 1.2 kg/m3
32199 kPa | 962.6 ± 1.2 kg/m3
32205 kPa | 962.6 ± 1.2 kg/m3
32236 kPa | 962.7 ± 1.2 kg/m3
32237 kPa | 962.7 ± 1.2 kg/m3
32274 kPa | 962.7 ± 1.2 kg/m3
32282 kPa | 962.7 ± 1.2 kg/m3
32305 kPa | 962.7 ± 1.2 kg/m3
32320 kPa | 962.7 ± 1.2 kg/m3
32337 kPa | 962.6 ± 1.2 kg/m3
32358 kPa | 962.7 ± 1.2 kg/m3
32368 kPa | 962.7 ± 1.2 kg/m3
32403 kPa | 962.8 ± 1.2 kg/m3
32406 kPa | 962.7 ± 1.2 kg/m3
32438 kPa | 962.8 ± 1.2 kg/m3
32441 kPa | 962.8 ± 1.2 kg/m3
32471 kPa | 962.8 ± 1.2 kg/m3
32480 kPa | 962.9 ± 1.2 kg/m3
32509 kPa | 962.8 ± 1.2 kg/m3
